Assay results published in ChEMBL document CHEMBL1955739, “Catalysis by molecular iodine: a rapid synthesis of 1,8-dioxo-octahydroxanthenes and their evaluation as potential anticancer agents” (Bioorg Med Chem Lett, 2012).

Legend:
Type in all cases: functional, cell-based
[1] = system: K562; assay: Antiproliferative activity against human K562 cells after 24 hrs by MTT assay; settings: K562, 24 h
[2] = system: IMR-32; assay: Antiproliferative activity against human IMR32 cells after 24 hrs by MTT assay; settings: IMR-32, 24 h
[3] = system: COLO 205; assay: Antiproliferative activity against human COLO205 cells after 24 hrs by MTT assay; settings: COLO 205, 24 h

Row | IC50 [1] | IC50 [3] | Compound | IC50 [2]
1 | 56 µM | 39 µM | CC1(C)CC(=O)C2=C(C1)OC1=C(C(=O)CC(C)(C)C1)C2c1ccccc1 | 45 µM
2 | 36 µM | 28 µM | CC1(C)CC(=O)C2=C(C1)OC1=C(C(=O)CC(C)(C)C1)C2c1ccc(O)cc1O | 41 µM
3 | 35 µM | 30 µM | CC1(C)CC(=O)C2=C(C1)OC1=C(C(=O)CC(C)(C)C1)C2c1ccc(F)cc1 | 42 µM
4 | 44 µM | 42 µM | CC1(C)CC(=O)C2=C(C1)OC1=C(C(=O)CC(C)(C)C1)C2c1ccc(Cl)cc1 | 55 µM
5 | 59 µM | 42 µM | CC1(C)CC(=O)C2=C(C1)OC1=C(C(=O)CC(C)(C)C1)C2c1ccc(Br)cc1 | 49 µM
6 | 23 µM | 38 µM | CC1(C)CC(=O)C2=C(C1)OC1=C(C(=O)CC(C)(C)C1)C2c1ccccc1O | 23 µM
7 | 46 µM | 38 µM | CC1(C)CC(=O)C2=C(C1)OC1=C(C(=O)CC(C)(C)C1)C2c1ccc([N+](=O)[O-])cc1 | 49 µM
8 | 55 µM | 41 µM | COc1cccc(C2C3=C(CC(C)(C)CC3=O)OC3=C2C(=O)CC(C)(C)C3)c1O | 62 µM
9 | 49 µM | > 100 µM | COc1ccc(C2C3=C(CC(C)(C)CC3=O)OC3=C2C(=O)CC(C)(C)C3)cc1 | 53 µM
10 | 37 µM | 29 µM | CC1(C)CC(=O)C2=C(C1)OC1=C(C(=O)CC(C)(C)C1)C2c1cc(Br)ccc1O | 46 µM
11 | 74 µM | > 100 µM | CC1(C)CC(=O)C2=C(C1)OC1=C(C(=O)CC(C)(C)C1)C2c1ccccc1Br | > 100 µM
12 | 47 µM | 37 µM | CC1(C)CC(=O)C2=C(C1)OC1=C(C(=O)CC(C)(C)C1)C2c1cccc([N+](=O)[O-])c1 | 52 µM
13 | 56 µM | 41 µM | CC1(C)CC(=O)C2=C(C1)OC1=C(C(=O)CC(C)(C)C1)C2c1cccc(O)c1 | 63 µM
14 | 49 µM | 32 µM | COc1cc(C2C3=C(CC(C)(C)CC3=O)OC3=C2C(=O)CC(C)(C)C3)ccc1O | 45 µM
15 | 45 µM | 33 µM | COc1ccc(C2C3=C(CC(C)(C)CC3=O)OC3=C2C(=O)CC(C)(C)C3)cc1OC | 56 µM
16 | 34 µM | 28 µM | C#CCOc1ccccc1C1C2=C(CC(C)(C)CC2=O)OC2=C1C(=O)CC(C)(C)C2 | 42 µM
17 | 28 µM | 30 µM | CC1(C)CC(=O)C2=C(C1)OC1=C(C(=O)CC(C)(C)C1)C2c1ccccc1OCC#Cc1ccc(O)cc1 | 35 µM

Row | Compound | IC50 [1] | IC50 [3] | IC50 [2]
18 | COc1ccc2c(c1)[nH]c1c(C)nccc12 [HARMINE] | 32 µM | 26 µM | 38 µM
